# Results as given in patent US8569296B2, “PI3K (delta) selective inhibitors” (Xcovery Holding Company, LLC, priority 2009, dated 2013).
# pIC50: −log10 of the molar value. Where two headings read alike, the source gives them in different places.
# Legend:
# Test in all cases: Kinase binding assay (kinase-tagged T7 phage / qPCR, Ambit Biosciences)
# PI3Kβ = target: T1, PI3Kβ (Homo sapiens, UniProt P42338); details: read-out: inhibitory activity (IC50) against PI3Kβ
# T1 construct: purchased Ambit Biosciences; host or cells: E. coli BL21-derived host (T7 phage) or HEK-293
# Description: (§1) Assays were performed as described in Fabian et al. (2005) Nature Biotechnology, vol. 23, p. 329 and in Karaman et al. (2008) Nature Biotechnology, vol. 26, p. 127.
# (§2) Kinase assays. For most assays, kinase-tagged T7 phage strains were grown in parallel in 24-well blocks in an E. coli host derived from the BL21 strain. E. coli were grown to log-phase and infected with T7 phage from a frozen stock (multiplicity of infection ˜0.1) and incubated with shaking at 32° C. until lysis (˜90 minutes). The lysates were centrifuged (6,000×g) and filtered ([…]) to remove cell debris. The remaining kinases were produced in HEK-293 cells and subsequently tagged with DNA for qPCR detection. Streptavidin-coated magnetic beads were treated with biotinylated small molecule ligands for 30 minutes at room temperature to generate affinity resins for kinase assays. The liganded beads were blocked with excess biotin and washed with blocking buffer (SeaBlock (Pierce), 1% BSA, 0.05% Tween 20, 1 mM DTT) to remove unbound ligand and to reduce non-specific phage binding. Binding reactions were assembled by combining kinases, liganded affinity beads, and test compounds in 1× binding buffer (20% SeaBlock, 0.17×PBS, 0.05% Tween 20, 6 mM DTT). Test compounds were prepared as 40× stocks in 100% DMSO and directly diluted into the assay. All reactions were performed in polypropylene 384-well plates in a final volume of 0.04 ml. The assay plates were incubated at room temperature with shaking for 1 hour and the affinity beads were washed with wash buffer (1×PBS, 0.05% Tween 20). The beads were then re-suspended in elution buffer (1×PBS, 0.05% Tween 20, 0.5 mM non-biotinylated affinity ligand) and incubated at room temperature with shaking for 30 minutes. The kinase concentration in the eluates was measured by qPCR.
# (§3) Compounds were tested using the above assay at Ambit Biosciences (San Diego, Calif., USA).
# PI3Kα = target: T2, PI3Kα (Homo sapiens, UniProt P42336); details: read-out: inhibitory activity (IC50) against PI3Kα
# T2 construct: purchased Ambit Biosciences; host or cells: E. coli BL21-derived host (T7 phage) or HEK-293
# Description: as §1, §2, §3
# PI3Kγ = target: T3, PI3Kγ (Homo sapiens, UniProt P48736); details: read-out: inhibitory activity (IC50) against PI3Kγ
# T3 construct: purchased Ambit Biosciences; host or cells: E. coli BL21-derived host (T7 phage) or HEK-293
# Description: as §1, §2, §3
# mTOR = target: T4, mTOR (Homo sapiens, UniProt P42345); details: read-out: inhibitory activity (IC50) against mTOR
# T4 construct: purchased Ambit Biosciences; host or cells: E. coli BL21-derived host (T7 phage) or HEK-293
# Description: as §1, §2, §3
# PI3Kδ = target: T5, PI3Kδ (Homo sapiens, UniProt O00329)
# T5 construct: purchased Ambit Biosciences; host or cells: E. coli BL21-derived host (T7 phage) or HEK-293
# T5 sequence (O00329 1-1044): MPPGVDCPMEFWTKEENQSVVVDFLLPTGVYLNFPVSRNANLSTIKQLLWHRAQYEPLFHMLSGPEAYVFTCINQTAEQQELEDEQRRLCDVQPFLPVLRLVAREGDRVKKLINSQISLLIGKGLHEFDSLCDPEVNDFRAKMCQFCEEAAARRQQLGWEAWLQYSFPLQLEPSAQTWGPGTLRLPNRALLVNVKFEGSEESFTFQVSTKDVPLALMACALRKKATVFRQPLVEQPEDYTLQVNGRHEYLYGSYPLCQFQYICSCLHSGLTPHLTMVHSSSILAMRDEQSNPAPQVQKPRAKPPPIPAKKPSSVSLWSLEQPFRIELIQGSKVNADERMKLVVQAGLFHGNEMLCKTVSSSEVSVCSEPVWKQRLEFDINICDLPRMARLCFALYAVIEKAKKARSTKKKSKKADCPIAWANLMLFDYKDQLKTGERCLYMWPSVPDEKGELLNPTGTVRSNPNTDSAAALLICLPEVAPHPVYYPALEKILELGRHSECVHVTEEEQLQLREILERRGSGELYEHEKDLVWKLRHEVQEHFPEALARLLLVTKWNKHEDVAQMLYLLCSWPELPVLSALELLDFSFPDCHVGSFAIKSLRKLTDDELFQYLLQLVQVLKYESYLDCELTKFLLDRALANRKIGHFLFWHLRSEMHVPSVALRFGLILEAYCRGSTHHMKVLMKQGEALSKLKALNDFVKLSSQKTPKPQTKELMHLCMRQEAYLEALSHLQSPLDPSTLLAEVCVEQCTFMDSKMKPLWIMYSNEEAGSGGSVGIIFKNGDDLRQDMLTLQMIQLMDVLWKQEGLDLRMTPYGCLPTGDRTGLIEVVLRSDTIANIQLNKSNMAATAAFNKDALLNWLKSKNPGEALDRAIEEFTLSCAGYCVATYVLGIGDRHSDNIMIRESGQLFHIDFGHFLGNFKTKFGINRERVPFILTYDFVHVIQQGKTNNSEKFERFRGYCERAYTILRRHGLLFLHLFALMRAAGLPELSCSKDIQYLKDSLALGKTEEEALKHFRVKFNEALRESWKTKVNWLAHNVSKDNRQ
# Description: as §1, §2, §3
# T2 sequence (P42336 whole entry): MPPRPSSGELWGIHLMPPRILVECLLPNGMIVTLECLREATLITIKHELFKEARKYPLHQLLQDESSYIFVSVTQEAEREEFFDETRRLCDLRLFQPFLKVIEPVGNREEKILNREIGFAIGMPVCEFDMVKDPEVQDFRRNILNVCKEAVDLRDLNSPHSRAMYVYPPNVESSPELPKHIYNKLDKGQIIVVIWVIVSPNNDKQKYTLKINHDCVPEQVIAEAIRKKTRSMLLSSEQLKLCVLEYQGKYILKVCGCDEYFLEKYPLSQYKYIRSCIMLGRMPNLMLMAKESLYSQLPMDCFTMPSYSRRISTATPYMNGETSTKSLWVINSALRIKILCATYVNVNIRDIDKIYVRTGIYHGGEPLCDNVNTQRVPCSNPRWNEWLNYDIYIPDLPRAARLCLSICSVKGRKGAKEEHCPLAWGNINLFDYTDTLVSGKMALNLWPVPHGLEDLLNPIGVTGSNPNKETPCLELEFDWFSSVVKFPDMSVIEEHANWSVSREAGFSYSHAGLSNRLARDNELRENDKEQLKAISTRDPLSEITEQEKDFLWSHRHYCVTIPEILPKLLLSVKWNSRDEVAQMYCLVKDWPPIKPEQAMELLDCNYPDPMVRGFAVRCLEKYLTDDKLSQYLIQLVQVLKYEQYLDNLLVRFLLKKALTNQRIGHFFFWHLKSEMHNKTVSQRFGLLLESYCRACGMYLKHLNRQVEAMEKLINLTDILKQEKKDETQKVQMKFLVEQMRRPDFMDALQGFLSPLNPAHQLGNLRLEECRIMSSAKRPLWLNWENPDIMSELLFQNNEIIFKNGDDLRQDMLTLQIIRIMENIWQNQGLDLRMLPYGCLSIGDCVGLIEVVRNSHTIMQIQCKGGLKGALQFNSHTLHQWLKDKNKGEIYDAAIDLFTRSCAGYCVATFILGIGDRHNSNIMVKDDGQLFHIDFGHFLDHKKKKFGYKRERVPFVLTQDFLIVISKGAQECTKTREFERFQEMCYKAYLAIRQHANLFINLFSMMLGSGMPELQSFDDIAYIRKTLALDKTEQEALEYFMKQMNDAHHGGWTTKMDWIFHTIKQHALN
# T3 sequence (P48736 whole entry): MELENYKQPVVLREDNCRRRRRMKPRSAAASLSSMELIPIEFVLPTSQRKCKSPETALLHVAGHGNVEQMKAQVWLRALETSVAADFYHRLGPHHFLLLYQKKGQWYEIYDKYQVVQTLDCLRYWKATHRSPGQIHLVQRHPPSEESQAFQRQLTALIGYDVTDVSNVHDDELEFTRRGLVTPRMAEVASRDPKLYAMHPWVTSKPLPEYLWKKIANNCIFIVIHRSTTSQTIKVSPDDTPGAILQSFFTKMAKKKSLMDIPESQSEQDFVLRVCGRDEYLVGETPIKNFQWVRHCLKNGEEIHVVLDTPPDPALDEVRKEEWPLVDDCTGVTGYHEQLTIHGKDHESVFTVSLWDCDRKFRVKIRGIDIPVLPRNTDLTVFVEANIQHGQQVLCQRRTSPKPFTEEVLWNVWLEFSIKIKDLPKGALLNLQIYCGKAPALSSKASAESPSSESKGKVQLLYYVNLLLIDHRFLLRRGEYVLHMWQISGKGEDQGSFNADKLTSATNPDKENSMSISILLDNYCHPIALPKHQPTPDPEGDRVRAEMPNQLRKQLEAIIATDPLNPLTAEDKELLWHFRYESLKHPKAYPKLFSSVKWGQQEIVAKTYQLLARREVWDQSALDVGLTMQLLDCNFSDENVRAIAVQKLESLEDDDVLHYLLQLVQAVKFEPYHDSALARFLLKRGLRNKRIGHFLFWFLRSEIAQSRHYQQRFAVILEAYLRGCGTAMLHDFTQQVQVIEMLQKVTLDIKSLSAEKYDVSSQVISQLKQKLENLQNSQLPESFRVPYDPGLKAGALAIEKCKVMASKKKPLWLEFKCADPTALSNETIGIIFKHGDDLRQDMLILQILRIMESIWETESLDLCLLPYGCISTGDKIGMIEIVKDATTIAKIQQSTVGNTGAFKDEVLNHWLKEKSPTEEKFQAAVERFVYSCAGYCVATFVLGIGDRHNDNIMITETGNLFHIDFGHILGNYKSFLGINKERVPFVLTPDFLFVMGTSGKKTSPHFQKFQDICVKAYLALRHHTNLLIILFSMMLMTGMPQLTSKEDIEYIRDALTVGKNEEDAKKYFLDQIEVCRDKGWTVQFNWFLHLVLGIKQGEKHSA
# T1 sequence (P42338 whole entry): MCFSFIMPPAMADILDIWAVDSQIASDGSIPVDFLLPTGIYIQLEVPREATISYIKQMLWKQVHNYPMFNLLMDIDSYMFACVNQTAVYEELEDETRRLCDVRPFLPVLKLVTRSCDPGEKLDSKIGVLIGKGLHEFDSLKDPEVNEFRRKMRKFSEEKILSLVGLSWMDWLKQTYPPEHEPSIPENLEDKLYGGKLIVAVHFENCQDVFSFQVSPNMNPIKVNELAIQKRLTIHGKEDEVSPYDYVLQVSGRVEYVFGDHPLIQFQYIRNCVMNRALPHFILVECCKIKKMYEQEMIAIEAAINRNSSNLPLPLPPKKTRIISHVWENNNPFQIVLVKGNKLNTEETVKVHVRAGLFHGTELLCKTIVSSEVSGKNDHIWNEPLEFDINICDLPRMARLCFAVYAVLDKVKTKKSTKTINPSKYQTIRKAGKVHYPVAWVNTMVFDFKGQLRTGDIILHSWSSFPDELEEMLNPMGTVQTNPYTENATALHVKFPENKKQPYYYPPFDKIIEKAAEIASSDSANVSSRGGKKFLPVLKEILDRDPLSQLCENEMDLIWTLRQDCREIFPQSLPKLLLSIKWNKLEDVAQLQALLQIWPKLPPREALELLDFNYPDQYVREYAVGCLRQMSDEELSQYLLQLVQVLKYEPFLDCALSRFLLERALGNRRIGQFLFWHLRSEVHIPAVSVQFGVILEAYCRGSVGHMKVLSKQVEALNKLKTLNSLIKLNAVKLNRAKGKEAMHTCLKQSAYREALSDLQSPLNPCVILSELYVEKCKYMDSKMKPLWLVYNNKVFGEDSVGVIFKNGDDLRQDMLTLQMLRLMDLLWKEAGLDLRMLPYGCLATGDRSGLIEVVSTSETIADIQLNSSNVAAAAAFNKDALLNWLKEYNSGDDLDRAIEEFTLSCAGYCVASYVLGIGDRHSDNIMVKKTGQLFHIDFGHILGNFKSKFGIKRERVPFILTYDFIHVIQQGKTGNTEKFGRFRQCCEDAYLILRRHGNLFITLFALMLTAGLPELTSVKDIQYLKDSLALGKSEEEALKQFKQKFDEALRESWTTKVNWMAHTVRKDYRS
pIC50 (PI3Kβ),pIC50 (PI3Kα),pIC50 (PI3Kγ),pIC50 (mTOR),pIC50 (PI3Kδ),inhibition against PI3Kδ (PI3Kδ; at up to 100 nM),"pIC50 (PI3Kδ; read-out: IC50, inhibition against PI3Kδ)",Compound
< 7.00,< 7.00,< 7.00,< 7.00,> 7.00,,,"OCCn1cnc2c(-n3c(C(F)F)nc4ccccc43)nc(N3CCOCC3)nc21 [Example 2, 2-{6-[2-(difluoromethyl)benzimidazol-1-yl]-2-morpholin-4-ylpurin-9-yl}ethan-1-ol]"
,,,,,did not show significant inhibition,,"Cc1nc2ccccc2n1-c1nc(N2CCOCC2)nc2c1ncn2CCO [Example 2d, reference compound]"
,> 7.00,> 7.00,,,,> 7.00,"COc1cccc2c1nc(C(F)F)n2-c1nc(N2CCOCC2)nc2c1ncn2C1CCOCC1 [Example 21, 1-(9-(2H-3,4,5,6-tetrahydropyran-4-yl)-2-morpholin-4-ylpurin-6-yl)-2-(difluoromethyl)-4-methoxybenzimidazole]"
